Patent publication US10246456B2, “IRAK4 inhibiting agents” (BIOGEN MA INC., priority 2014, dated 2019)

Key:
IRAK4 = IRAK4 (Homo sapiens (Human), UniProt Q9NWZ3); test: IRAK-4 AlphaScreen biochemical kinase assay; conditions: 1 nM IRAK4, 1 mM ATP, 3.5 h at RT
How it was run: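 AlphaScreen read-out: streptavidin beads bind the biotinylated peptide and protein A beads bind the anti-phosphothreonine antibody, so energy transfer reports phosphorylation of the peptide. The kinase is human IRAK-4.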

IL-6 in A549 cells = test: Cell-based IL-6 ELISA assay in IL-1beta stimulated A549 cells; conditions: 2 ng/ml human IL-1beta overnight
Experimental: The cell-based assays is based on IL-6 ELISA quantification. Briefly, A549 cells are cultured in DMEM with 10% FBS medium. When cells reach 80% confluence they are trypsin treated and seeded 180 ul/well in 96-well plate at 2.5×10^4 cells/well. Then, 20 ul of compound serial dilutions (starting at 10 uM, 10 points) are added to the cell plate; incubate for 30 min at 37 C and stimulated with 2 ng/ml human IL-1beta 37 C, 5% CO2 overnight. The next day 100 ul of cell supernatant per well are analyzed on a Human IL-6 Quantikine ELISA kit from R&D Systems.

IRAK4, sequence (Q9NWZ3 whole entry, species assumed): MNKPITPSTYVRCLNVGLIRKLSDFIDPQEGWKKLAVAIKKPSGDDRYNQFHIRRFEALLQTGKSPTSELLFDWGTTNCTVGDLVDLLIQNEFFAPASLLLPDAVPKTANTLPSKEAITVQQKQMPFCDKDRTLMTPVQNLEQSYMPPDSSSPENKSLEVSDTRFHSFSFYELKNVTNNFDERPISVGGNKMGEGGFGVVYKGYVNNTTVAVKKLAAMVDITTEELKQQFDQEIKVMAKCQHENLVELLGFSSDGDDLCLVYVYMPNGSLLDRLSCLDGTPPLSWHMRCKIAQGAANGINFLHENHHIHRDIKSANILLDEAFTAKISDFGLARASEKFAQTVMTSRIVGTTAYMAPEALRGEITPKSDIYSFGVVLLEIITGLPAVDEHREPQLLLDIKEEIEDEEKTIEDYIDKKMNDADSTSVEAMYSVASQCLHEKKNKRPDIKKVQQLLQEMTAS

SMILES | IC50 (IRAK4) [µM] | EC50 (IL-6 in A549 cells) [µM]
C[C@H](N)c1cccc(-c2cc(C(=O)NC(C)(C)CO)c3cnn(-c4cccc(CO)n4)c3c2)n1 [Example 540, (S)-6-(6-(1-aminoethyl)pyridin-2-yl)-N-(1-hydroxy-2-methylpropan-2-yl)-1-(6-(hydroxymethyl)pyridin-2-yl)-1H-indazole-4-carboxamide] | 0.1 to 1 | 1 to 10
CCc1cccc(-c2cc(-c3nnc(C)o3)c3cnn(-c4cccc(CO)n4)c3c2)n1 [Example 358, (6-(6-(6-ethylpyridin-2-yl)-4-(5-methyl-1,3,4-oxadiazol-2-yl)-1H-indazol-1-yl)pyridin-2-yl)methanol] | – | ≤ 1
CCCC(N)c1cccc(-c2ccc3cnn(-c4cccc(C(F)F)n4)c3c2)n1 (stereo in doubt) [Example 519, (S)-1-(6-(1-(6-(difluoromethyl)pyridin-2-yl)-1H-indazol-6-yl)pyridin-2-yl)butan-1-amine] | < 0.1 | ≤ 1
Cc1csc(-c2cc(-c3cccc([C@H](C)N)n3)cc3c2cnn3-c2cccc(CO)n2)n1 [Example 375, (S)-(6-(6-(6-(1-aminoethyl)pyridin-2-yl)-4-(4-methylthiazol-2-yl)-1H-indazol-1-yl)pyridin-2-yl)methanol] | < 0.1 | ≤ 1
CCC[C@H](N)c1cccc(-c2cc(N3CCCC3)c3cnn(-c4cccc(CO)n4)c3c2)n1 [Example 342, (S)-(6-(6-(6-(1-aminobutyl)pyridin-2-yl)-4-(pyrrolidin-1-yl)-1H-indazol-1-yl)pyridin-2-yl)methanol] | < 0.1 | ≤ 1
CSCC(N)c1cccc(-c2ccc3cnn(-c4cccc(CO)n4)c3c2)n1 (stereo not shown) [Example 520, (6-(6-(6-(1-amino-2-(methylthio)ethyl)pyridin-2-yl)-1H-indazol-1-yl)pyridin-2-yl)methanol] | < 0.1 | ≤ 1
CN(C)C(=O)C(N)c1cccc(-c2ccc3cnn(-c4cccc(CO)n4)c3c2)n1 (stereo not shown) [Example 544, 2-amino-2-(6-(1-(6-(hydroxymethyl)pyridin-2-yl)-1H-indazol-6-yl)pyridin-2-yl)-N,N-dimethylacetamide] | < 0.1 | 1 to 10
CC[C@H](F)[C@H](N)c1cccc(-c2cc(OCCOC)c3cnn(-c4cccc(CO)n4)c3c2)n1 [Example 454, (6-(6-(6-((1R,2S)-1-amino-2-fluorobutyl)pyridin-2-yl)-4-(2-methoxyethoxy)-1H-indazol-1-yl)pyridin-2-yl)methanol] | < 0.1 | ≤ 1
C[C@H](N)c1cccc(-c2cc(-c3cn(C)cn3)c3cnn(-c4cccc(CO)n4)c3c2)n1 [Example 363, (S)-(6-(6-(6-(1-aminoethyl)pyridin-2-yl)-4-(1-methyl-1H-imidazol-4-yl)-1H-indazol-1-yl)pyridin-2-yl)methanol] | < 0.1 | ≤ 1
C[C@H](N)c1cccc(-c2cc(F)c3cnn(-c4cccc(CO)n4)c3c2)n1 [Example 475, (6-{6-[6-((S)-1-Amino-ethyl)-pyridin-2-yl]-4-fluoro-indazol-1-yl}-pyridin-2-yl)-methanol] | – | ≤ 1
CCC(O)C(N)c1cccc(-c2ccc3cnn(-c4cccc(CO)n4)c3c2)n1 (stereo not shown) [Example 516, 1-amino-1-(6-(1-(6-(hydroxymethyl)pyridin-2-yl)-1H-indazol-6-yl)pyridin-2-yl)butan-2-ol] | – | ≤ 1
CNCc1cccc(-c2ccc3cnn(-c4cccc(C)n4)c3c2)c1 [Example 18, N-methyl-1-(3-(1-(6-methylpyridin-2-yl)-1H-indazol-6-yl)phenyl)methanamine] | < 0.1 | –
COCCOc1cc(-c2cccc(C3(N)CCOC3)n2)cc2c1cnn2-c1cccc(CO)n1 (stereo not shown) [Example 466, (6-(6-(6-(3-aminotetrahydrofuran-3-yl)pyridin-2-yl)-4-(2-methoxyethoxy)-1H-indazol-1-yl)pyridin-2-yl)methanol] | < 0.1 | –
CCCc1cccc(-n2ncc3ccc(-c4cccc(C(C)N)n4)cc32)n1 (stereo not shown) [Example 283, 1-(6-(1-(6-propylpyridin-2-yl)-1H-indazol-6-yl)pyridin-2-yl)ethanamine] | < 0.1 | –
Cc1cccc(-n2ncc3ccc(-c4ccc(C(F)(F)F)c(C(C)N)n4)cc32)n1 (stereo not shown) [Example 255, 1-(6-(1-(6-methylpyridin-2-yl)-1H-indazol-6-yl)-3-(trifluoromethyl)pyridin-2-yl)ethanamine] | 0.1 to 1 | –
Cc1cccc(-n2ncc3c(-c4cc[nH]n4)cc(-c4cccc(C(C)N)n4)cc32)n1 (stereo not shown) [Example 319, 1-(6-(1-(6-methylpyridin-2-yl)-4-(1H-pyrazol-3-yl)-1H-indazol-6-yl)pyridin-2-yl)ethanamine] | < 0.1 | –

Second part, the compound after the results:

IC50 (IRAK4) [µM] | EC50 (IL-6 in A549 cells) [µM] | SMILES
< 0.1 | ≤ 1 | COCCCOc1cc(-c2cccc([C@H](C)N)n2)cc2c1cnn2-c1cccc(CO)n1 [Example 458, (S)-(6-(6-(6-(1-aminoethyl)pyridin-2-yl)-4-(3-methoxypropoxy)-1H-indazol-1-yl)pyridin-2-yl)methanol]
< 0.1 | ≤ 1 | CC[C@H](N)c1cccc(-c2cc(F)c3cnn(-c4cccc(CO)n4)c3c2)n1 [Example 473, (S)-(6-(6-(6-(1-aminopropyl)pyridin-2-yl)-4-fluoro-1H-indazol-1-yl)pyridin-2-yl)methanol]
< 0.1 | ≤ 1 | CCC[C@H](N)c1cccc(-c2cc(C#N)c3cnn(-c4cccc(CO)n4)c3c2)n1 [Example 511, (S)-6-(6-(1-aminobutyl)pyridin-2-yl)-1-(6-(hydroxymethyl)pyridin-2-yl)-1H-indazole-4-carbonitrile]
< 0.1 | ≤ 1 | Cc1cnc(-c2cc(-c3cccc([C@H](C)N)n3)cc3c2cnn3-c2cccc(CO)n2)s1 [Example 372, (S)-(6-(6-(6-(1-aminoethyl)pyridin-2-yl)-4-(5-methylthiazol-2-yl)-1H-indazol-1-yl)pyridin-2-yl)methanol]
< 0.1 | 1 to 10 | C[C@H](N)c1cccc(-c2cc(-n3ccc(C(F)(F)F)n3)c3cnn(-c4cccc(CO)n4)c3c2)n1 [Example 356, (S)-(6-(6-(6-(1-aminoethyl)pyridin-2-yl)-4-(3-(trifluoromethyl)-1H-pyrazol-1-yl)-1H-indazol-1-yl)pyridin-2-yl)methanol]
< 0.1 | ≤ 1 | NC(CC1CC1)c1cccc(-c2ccc3cnn(-c4cccc(CO)n4)c3c2)n1 (stereo not shown) [Example 535, (6-(6-(6-(1-amino-2-cyclopropylethyl)pyridin-2-yl)-1H-indazol-1-yl)pyridin-2-yl)methanol]
< 0.1 | ≤ 1 | CCC[C@H](N)c1cccc(-c2cc(CN3CCOCC3)c3cnn(-c4cccc(CO)n4)c3c2)n1 [Example 498, (S)-(6-(6-(6-(1-aminobutyl)pyridin-2-yl)-4-(morpholinomethyl)-1H-indazol-1-yl)pyridin-2-yl)methanol]
– | ≤ 1 | CCC[C@H](N)c1cccc(-c2cc(N3CCCCC3)c3cnn(-c4cccc(CO)n4)c3c2)n1 [Example 324, (S)-(6-(6-(6-(1-aminobutyl)pyridin-2-yl)-4-(piperidin-1-yl)-1H-indazol-1-yl)pyridin-2-yl)methanol]
– | ≤ 1 | CCC[C@H](N)c1cccc(-c2cc(C3=CCN(C)CC3)c3cnn(-c4cccc(CO)n4)c3c2)n1 [Example 423, (S)-(6-(6-(6-(1-aminobutyl)pyridin-2-yl)-4-(1-methyl-1,2,3,6-tetrahydropyridin-4-yl)-1H-indazol-1-yl)pyridin-2-yl)methanol]
– | ≤ 1 | CCC[C@H](N)c1cccc(-c2cc(N3CCOCC3)c3cnn(-c4cccc(CO)n4)c3c2)n1 [Example 339, (S)-(6-(6-(6-(1-aminobutyl)pyridin-2-yl)-4-morpholino-1H-indazol-1-yl)pyridin-2-yl)methanol]
– | ≤ 1 | CCC[C@H](N)c1cccc(-c2cc(N3CCC3)c3cnn(-c4cccc(CO)n4)c3c2)n1 [Example 345, (S)-(6-(6-(6-(1-aminobutyl)pyridin-2-yl)-4-(azetidin-1-yl)-1H-indazol-1-yl)pyridin-2-yl)methanol]
– | ≤ 1 | CC(O)CC(N)c1cccc(-c2ccc3cnn(-c4cccc(CO)n4)c3c2)n1 (stereo not shown) [Example 525, 4-amino-4-(6-(1-(6-(hydroxymethyl)pyridin-2-yl)-1H-indazol-6-yl)pyridin-2-yl)butan-2-ol]
1 to 10 | – | Nc1cc(-c2ccc3cnn(-c4cccc(C(F)(F)F)n4)c3c2)cc(C(=O)O)n1 [Example 213, 6-amino-4-(1-(6-(trifluoromethyl)pyridin-2-yl)-1H-indazol-6-yl)picolinic acid]
0.1 to 1 | – | N#Cc1ccnc(-n2ncc3ccc(-c4cncc(N)c4)cc32)c1 [Example 35, 2-(6-(5-aminopyridin-3-yl)-1H-indazol-1-yl)isonicotinonitrile]
1 to 10 | – | Cc1cccc(-n2ncc3cc(C)c(-c4cncc(N)c4)cc32)n1 [Example 44, 5-(5-methyl-1-(6-methylpyridin-2-yl)-1H-indazol-6-yl)pyridin-3-amine]
0.1 to 1 | – | Cc1cccc(-n2ncc3c(C4CC4)cc(-c4cccc(C(C)N)n4)cc32)n1 (stereo not shown) [Example 107, 1-(6-(4-cyclopropyl-1-(6-methylpyridin-2-yl)-1H-indazol-6-yl)pyridin-2-yl)ethanamine]
0.1 to 1 | – | Cc1cccc(-n2ncc3c(C(C)C)cc(-c4cccc(C(C)N)n4)cc32)n1 (stereo not shown) [Example 110, 1-(6-(4-isopropyl-1-(6-methylpyridin-2-yl)-1H-indazol-6-yl)pyridin-2-yl)ethanamine]
< 0.1 | – | CCC(N)c1cccc(-c2ccc3cnn(-c4cccc(C)n4)c3c2)n1 (stereo not shown) [Example 263, 1-(6-(1-(6-methylpyridin-2-yl)-1H-indazol-6-yl)pyridin-2-yl)propan-1-amine]
